Assay results as given in ChEMBL document CHEMBL1122294, “Synthesis and biological activity of zoapatanol analogues” (J Med Chem, 1983).
Active and inactive are the calls of the source. The calls are words filed in the database; no cut-off is given here.

Key:
Assay type in all cases: functional, organism-based
Cavia porcellus [1] = experiment: Postcoital antifertility was determined in guinea pigs after injected for 3 days subcutaneously (22-24 postmating days); IA- Inactive
Cavia porcellus [2] = experiment: Postcoital antifertility was determined in guinea pigs administered intraperitoneally as a single dose on day 22 postmating days; IA- Inactive
Cavia porcellus [3] = experiment: Luteolytic activity was determined in guinea pigs after injected for 3 days subcutaneously (22-24 postmating days); IA- Inactive
Cavia porcellus [4] = experiment: Luteolytic activity was determined in guinea pigs administered intraperitoneally as a single dose on day 22 postmating days; IA- Inactive
Cavia porcellus [5] = experiment: Pregnancy was determined in guinea pigs after sc administration of 40 or 50 mg per guinea pig on 12-14 postmating days (n=5); NA- No apparent effect
Cavia porcellus [6] = experiment: Pregnancy was determined in guinea pigs after sc administration of 50 or 75 mg per guinea pig on 22-24 postmating days (n=5); NA- No apparent effect
Cavia porcellus [7] = experiment: Postcoital antifertility activity was determined in guinea pigs after injected for 3 days subcutaneously (12-14 postmating days); IA- Inactive
Cavia porcellus [8] = experiment: Luteolytic activity was determined in guinea pigs after injected for 3 days subcutaneously (12-14 postmating days); IA- Inactive
Cavia porcellus [9] = species: Cavia porcellus; experiment: Pregnancy was determined in guinea pigs after a single dose of 40 mg per guinea pig (n=1 or 2); NE- No effect
Cavia porcellus [10] = species: Cavia porcellus; experiment: Pregnancy was determined in guinea pigs after a single dose of 24 mg per guinea pig (n=1 or 2); NE- No effect
Cavia porcellus [11] = experiment: Effect in guinea pigs at a dose of 80 mg/kg of body weight; A- Partially active; design: dose 80 mg/kg
Cavia porcellus [12] = experiment: Effect on the resorption of implantation sites in guinea pigs at 100 mg/kg administered intraperitoneally; E- Fully effective; design: dose 100 mg/kg
Cavia porcellus [13] = experiment: Effect in guinea pigs at a dose of 60 mg/kg of body weight; A- Partially active; design: dose 60 mg/kg

Row | Compound | Activity (Cavia porcellus [1]) | Activity (Cavia porcellus [2]) | Activity (Cavia porcellus [3]) | Activity (Cavia porcellus [4]) | Activity (Cavia porcellus [5]) | Activity (Cavia porcellus [6]) | Activity (Cavia porcellus [7]) | Activity (Cavia porcellus [8]) | Activity (Cavia porcellus [9]) | Activity (Cavia porcellus [10]) | Activity (Cavia porcellus [11]) | Activity (Cavia porcellus [12]) | Activity (Cavia porcellus [13])
1 | COC(=O)C(C)CCC[C@@]1(C)COC(CO)CO1 (some centres undefined) | inactive | inactive | inactive | inactive | inactive | inactive | inactive | inactive | – | – | – | – | –
2 | CC(C)=CCC(=O)C(C)CCCC1(C)COC(CO)CO1 (centres undefined) | inactive | inactive | inactive | inactive | – | – | inactive | inactive | – | – | – | – | –
3 | COC(=O)C(C)CCC[C@]1(C)COC(CO)CO1 (some centres undefined) | inactive | inactive | inactive | inactive | inactive | inactive | inactive | inactive | – | – | – | – | –
4 | CC(C)=CCC(=O)C(C)CCCC1(C)COC(CC(=O)O)CO1 (centres undefined) | inactive | inactive | inactive | inactive | – | – | inactive | inactive | – | – | – | – | –
5 | CC(C)/C=C/C(=O)C(C)CCCC1(C)COC(CC(=O)O)CO1 (centres undefined) | inactive | inactive | inactive | inactive | – | – | inactive | inactive | inactive | inactive | – | – | –
6 | CC(C)=CCC(=O)C(C)CCCC1(C)OC/C(=C/CO)CCC1O (centres undefined) | – | – | – | – | – | – | – | – | – | – | Weak activity | Fully effective | Weak activity
